How the values were obtained:
[1] = test system: LexACfEcR-CDEF/VP16MmRXR-LmUSP-EFchimera; test: Dual switch reporter assay in NIH3T3 cells, luciferase under 8opLexARE; type: cell-based, Choristoneura fumiferana; settings: mouse NIH3T3 cells, 0.02, 0.1, 0.5, or 2.5 μM ligand, 48 hours, FIG. 1
Source text: (§1) A polynucleotide encoding the C, D, E, and F domains from fruit fly Drosophila melanogaster EcR (“DmEcR-CDEF”; SEQ ID NO: 1) was fused to a polynucleotide encoding a GAL4 DNA binding domain (“Gal4DNABD” or “Gal4 DBD”; SEQ ID NO: 2) and placed under the control of a cytomegalovirus (CMV) promoter/enhancer (SEQ ID NO: 3). A polynucleotide encoding the C, D, E, and F domains from spruce budworm Choristoneura fumiferana EcR (“CfEcR-CDEF”; SEQ ID NO: 4) was fused to a polynucleotide encoding a LexA DNA binding domain (“LexADNABD” or “LexADBD”; SEQ ID NO: 5) and placed under the control of a cytomegalovirus (CMV) promoter/enhancer (SEQ ID NO: 3). […]
(§2) DNAs corresponding to the dual switch constructs outlined in Examples 1.1 and 1.2 were transfected into mouse NIH3T3 cells (ATCC; Example 1.1) or CHO cells (ATCC; Example 1.2) as follows. […] One μg of reporter construct and 0.25 μg of each receptor construct of the receptor pair to be analyzed were added to the transfection mix. […]
(§3) Cells were harvested 48 hours after adding ligands and reporter activities were quantified using the Dual-luciferase™ reporter assay system from Promega Corporation. […] Luciferase activity was measured using Dual-luciferase™ reporter assay system from Promega Corporation following the manufacturer's instructions. […]

[2] = target: T1, GAL4DmEcR-CDEF/VP16MmRXR-LmUSP-EFchimera (Drosophila melanogaster, UniProt P34021); test: Dual switch reporter assay in NIH3T3 cells, SEAP under 6XGAL4RE; type: cell-based; settings: mouse NIH3T3 cells, 0.02, 0.1, 0.5, or 2.5 μM ligand, 48 hours, FIG. 1
T1 construct: C, D, E, and F domains from fruit fly Drosophila melanogaster EcR (“DmEcR-CDEF”); expressed in transfected cells; host or cells: mouse NIH3T3 cells
T1 sequence (P34021 other isoform, or with tags, fused parts or gaps): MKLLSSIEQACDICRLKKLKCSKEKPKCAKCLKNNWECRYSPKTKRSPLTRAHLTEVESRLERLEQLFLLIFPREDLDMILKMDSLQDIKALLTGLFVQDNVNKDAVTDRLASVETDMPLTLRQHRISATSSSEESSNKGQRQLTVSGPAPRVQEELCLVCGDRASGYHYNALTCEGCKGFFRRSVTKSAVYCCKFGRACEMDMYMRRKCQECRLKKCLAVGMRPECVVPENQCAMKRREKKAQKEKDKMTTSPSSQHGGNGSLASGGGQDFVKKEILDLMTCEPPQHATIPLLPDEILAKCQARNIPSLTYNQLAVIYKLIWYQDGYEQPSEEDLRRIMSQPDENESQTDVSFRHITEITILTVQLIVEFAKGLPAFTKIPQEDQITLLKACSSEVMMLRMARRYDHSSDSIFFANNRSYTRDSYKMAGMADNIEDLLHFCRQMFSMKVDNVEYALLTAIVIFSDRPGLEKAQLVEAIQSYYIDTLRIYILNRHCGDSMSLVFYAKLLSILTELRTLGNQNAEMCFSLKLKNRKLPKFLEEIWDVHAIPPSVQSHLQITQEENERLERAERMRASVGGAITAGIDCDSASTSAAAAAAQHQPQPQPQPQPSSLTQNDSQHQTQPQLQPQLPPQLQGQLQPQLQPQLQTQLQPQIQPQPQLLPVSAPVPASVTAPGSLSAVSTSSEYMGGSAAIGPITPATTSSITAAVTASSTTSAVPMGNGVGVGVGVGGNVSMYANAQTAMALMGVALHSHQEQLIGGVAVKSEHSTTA
Source text: as §1, §2, §3

[3] = test system: GAL4CfEcR-DEF/VP16MmRXRα-EF; test: Transactivation of pFRLuc reporter in CHO cells through CfEcR; type: cell-based, Choristoneura fumiferana; settings: hamster CHO cells, 0.1, 1, 5, or 10 μM ligand, 48 hours, FIG. 2
Protocol: (§4) This construct was prepared as follows. A polynucleotide encoding the D, E, and F domains from spruce budworm Choristoneura fumiferana EcR (“CfEcR-DEF”; SEQ ID NO: 14) was fused to a polynucleotide encoding a GAL4DNA binding domain (“GAL4 DBD”; SEQ ID NO: 2) and placed under the control of a cytomegalovirus (CMV) promoter/enhancer (SEQ ID NO: 3). A polynucleotide encoding the C, D and E domains from green leafhopper Nephotelix cincticeps ecdysone receptor (“NcEcR-CDE”; SEQ ID NO: 15) was fused to a polynucleotide encoding a GAL4DNA binding domain (“GAL4 DBD”; SEQ ID NO: 2) and placed under the control of a cytomegalovirus (CMV) promoter/enhancer (SEQ ID NO: 3). […]
as §2, §3

[4] = test system: GAL4NcEcR-CDE/VP16MmRXRα-EF; test: Transactivation of pFRLuc reporter in CHO cells through NcEcR; type: cell-based, Nephotetix cincticeps; settings: hamster CHO cells, 0.1, 1, 5, or 10 μM ligand, 48 hours, FIG. 2
Protocol: as §4, §2, §3

`CCc1c(OC)cccc1C(=O)NN(C(=O)c1cc(C)cc(C)c1)C(C)(C)C` [GS™-E, N-(2-ethyl-3-methoxybenzoyl)-N′-(3,5-dimethylbenzoyl)-N′-tert-butylhydrazine] was tested, and the “induction of luciferase reporter activity (LexACfEcR-CDEF switch)” value [1] was “luciferase activity was induced”, the “induction of SEAP reporter activity (GAL4DmEcR-CDEF switch)” value [2] was “only luciferase activity was induced” and the “induction of luciferase reporter activity regulated by CfEcR-DEF” value [3] was “luciferase activity regulated by CfEcR-DEF was induced”. The “induction of luciferase reporter activity regulated by NcEcR-CDE” value [4] was “does not induce reporter gene expression”.
In the case of `CC(C)CC[C@@H](O)[C@](C)(O)[C@H]1CC[C@@]2(O)C3=CC(=O)[C@@H]4C[C@@H](O)[C@@H](O)C[C@]4(C)[C@H]3CC[C@]12C` [PonA, ponasterone A], the “induction of luciferase reporter activity (LexACfEcR-CDEF switch)” value [1] is reported as “only SEAP reporter activity was induced”, the “induction of SEAP reporter activity (GAL4DmEcR-CDEF switch)” value [2] is reported as “SEAP reporter activity was induced” and the “induction of luciferase reporter activity regulated by CfEcR-DEF” value [3] is reported as “did not induce reporter gene expression”. For the same compound, the “induction of luciferase reporter activity regulated by NcEcR-CDE” value [4] was “luciferase reporter activity regulated by NcEcR-DE was induced”.
